Experimental data taken from US20240150302A1, “6-METHYLURACIL DERIVATIVES WITH ANTICHOLINESTERASE ACTIVITY AND THEIR USE” (priority 2021, published 2024).

Experiments:
mice of the CD-1 line [1] = experiment: General toxic effect (LD50) in mice; conditions: for LD50 (in mice, i.p.): intraperitoneal; for LD50 (in mice, p.o.): oral; for Times less toxic than donepezil hydrochloride, oral: ratio of LD50, administered orally; for Times less toxic than donepezil hydrochloride, intraperitoneal / Times less toxic than the free base: ratio of LD50, intraperitoneal
Method: Ed. A. N. Mironova] on mice of the CD-1 line (“Puschino” Nursery, Moscow Region), both males and females, weighing 19.0±2.0 g, kept on a standard diet in the day/night lighting regimen (12 hours) at 22° C.

[2] = system: transgenic mice of the B6C3-Tg(APP695)85Dbo Tg(PSENI)85Dbo genotype; experiment: Number of amyloid plaques in the cortex, Thioflavin S staining of brain sections; format: in vivo; conditions: administered orally
Method: The line was purchased at The Jackson Laboratory (USA) and kept in the “Pushchino” nursery for laboratory animals Pushchino, Moscow Region). At the beginning of the research, the age of the transgenic mice was 9 months.
(§1) An equivalent amount of water (Water (Tg+)) was orally administered to control groups of transgenic mice.
Amyloid-beta deposits were evaluated after sacrifice on mouse brain sections (20 μm) using the Thioflavin S fluorescent dye and the Olympus BX51W1 fluorescence microscope, by the method described in the article [http://library.med.utah.edu/WebPath/histhtml/manuals/manuals.html].
The line was purchased at The Jackson Laboratory (USA) and kept in the “Pushchino” nursery for laboratory animals Pushchino, Moscow Region). At the beginning of the research, the age of the transgenic mice was 8 months.
as §1

[3] = Solubility in water and organic solvents; format: physicochemical
[4] = system: transgenic mice with genotype B6C3-Tg(APP695)85Dbo Tg(PSENI)85Dbo; experiment: "Rewarded alternation" test in a T-maze, genetic model of Alzheimer's disease; format: in vivo; conditions: administered orally, compared with healthy animals
From the text: At the beginning of the research, the age of the transgenic mice was 9 months.
At the beginning of the research, the age of the transgenic mice was 8 months.

mice of the CD-1 line [5] = conditions: in mice, i.p.; prior-art free base; cited from earlier work
[6] = system: transgenic mice of the B6C3-Tg(APP695)85Dbo Tg(PSENI)85Dbo genotype; conditions: 5 mg/kg daily intraperitoneal, RU patent No. 2565756; cited from earlier work

Structure (SMILES)	LD50 (in mice, i.p.) (mice of the CD-1 line [1]) [mg/kg]	LD50 (in mice, p.o.) (mice of the CD-1 line [1]) [mg/kg]	Times less toxic than donepezil hydrochloride, oral (mice of the CD-1 line [1]) [times]	Times less toxic than donepezil hydrochloride, intraperitoneal (mice of the CD-1 line [1]) [times]	Times less toxic than the free base (mice of the CD-1 line [1]) [times]	Effect on the number of amyloid plaques in the cortex [2]	Solubility [3]	Correction of memory impairment [4]	LD50 (background statement) (mice of the CD-1 line [5]) [mg/kg]	Reduction of the number of amyloid deposits in the cerebral cortex [6] [%]
Br.Br.CCN(CCCCCn1c(C)cc(=O)n(CCCCCN(CC)Cc2ccccc2[N+](=O)[O-])c1=O)Cc1ccccc1[N+](=O)[O-] [Compound (1), 1,3-bis[5-(ortho-nitrobenzylethylamino)pentyl]-6-methyluracil dihydrobromide]	199	520	12	40	~4	more effective product for prevention of the formation of amyloid plaque than donepezil hydrochloride	soluble in chloroform, dimethylformamide, dimethyl sulfoxide, ethyl alcohol, and water	effective for correction of memory impairment		
CCN(CCCCCn1c(C)cc(=O)n(CCCCCN(CC)Cc2ccccc2[N+](=O)[O-])c1=O)Cc1ccccc1[N+](=O)[O-].Cl.Cl [Compound (2), 1,3-bis[5-(ortho-nitrobenzylethylamino)pentyl]-6-methyluracil dihydrochloride]	150	290	6	30	~3	more effective than donepezil hydrochloride for preventing the formation of amyloid plaques	soluble in dimethylformamide, dimethyl sulfoxide, ethyl alcohol, and water	effective for correcting memory impairment		
CCN(CCCCCn1c(C)cc(=O)n(CCCCCN(CC)Cc2ccccc2[N+](=O)[O-])c1=O)Cc1ccccc1[N+](=O)[O-] [1,3-bis[5-(ortho-nitrobenzyl-ethylamino)pentyl-1]-6-methyluracil, reference compound]	51						insoluble in water		51.48	50
